The record followed here is patent US20180071313A1, “DRY EYE THERAPEUTIC AGENT […] ESTER THEREOF OR M[…] ESTER THEREOF AS AN ACTIVE INGREDIENT” (SANTEN PHARMACEUTICAL CO., LTD., priority 2015, published 2018).

Structures are written as SMILES.

One data set deals with TL in tears. Briefly: Pharmacological Study (1): amount of TL in tears after administration to eyelid skin. It counts as in vivo, Rabbits (Japanese White, females). The note with it: cream 1% (w/v), eyelid skin of one eye, once per day 40 μL, two weeks after application vs before; rabbits with lower lacrimal gland and nictitating membrane excised, ketoconazole; mean ± standard error, n=4. How it is done: A study was conducted in rabbits as to whether or not the administration of nandrolone decanoate and methenolone acetate to eyelid skin increases the amount of TL in tears.
A cream containing 1% (w/v) of nandrolone decanoate, a cream containing 1% (w/v) of methenolone acetate and a base were prepared in the manner of the compositions indicated in Table 1.
Rabbits (Japanese White, females, purchased from Kitayama Labes Co., Ltd.) were used in the study. […]
Schirmer test paper (Showa Yakuhin Kako Co., Ltd.) was inserted into the conjunctival sac of the lower eyelid before application and two weeks after application to collect tears, followed by subjecting each of the collected tear specimens to slab gel electrophoresis. Following electrophoresis, the gel was stained with Coomassie Brilliant Blue stain, all protein bands, including the TL band at a molecular weight of about 17 kilodaltons, were detected, and the percentage of TL (% TL) in the total amount of protein present in the tears was calculated by image analysis of the resulting gel. The difference between the % TL before application and the % TL after application was determined for each individual and expressed as an increase in % TL (A % TL).

Data set [1] can be described thus: Pharmacokinetics Study (2): nandrolone concentration in the lacrimal glands after nandrolone decanoate to eyelid skin or instillation. The format is in vivo, Rabbits (Japanese White, males). The note with it: 2, 4, 8, 24 hours, LC-MS/MS, FIG. 2. As for the experimental part: A study was conducted for change over time of nandrolone concentration in the lacrimal glands after administration of nandrolone decanoate to eyelid skin, or instillation thereof.
0.4 g of nandrolone decanoate were added to castor oil followed by bringing to a volume of 20 mL and dissolving therein to prepare an ointment containing 2% (w/v) of nandrolone decanoate. In addition, a preparation of the same composition was used as an ophthalmic solution containing nandrolone decanoate.
Rabbits (Japanese White, males, purchased from Kitayama Labes Co., Ltd.) were used in the study. Fur of the right upper eyelid was shaved by using an electric hair clipper under general anesthesia on the day before drug administration followed by fitting the rabbits with Elizabethan collars prior to administration. […]
The rabbits were euthanized at 2, 4, 8 and 24 hours after administration and the right upper lacrimal gland tissue was excised (from 3 animals at each time). The lacrimal gland tissue was homogenized in methanol and the concentration of nandrolone (active form of nandrolone decanoate) in the centrifuged supernatant was measured by LC-MS/MS. The concentration of nandrolone in the lacrimal gland tissue was calculated from the wet weight of the tissue measured prior to homogenization and the concentration of nandrolone in the measured specimen.

Data set [2] has as its system lipophilin CL2 (L-CL2) gene. In words: Pharmacological Study (2): expression level of lipophilin CL2 (L-CL2) gene in lacrimal gland cells, quantitative PCR. The format is cell-based, rabbits (Japanese White, females). The note with it: isolated rabbit lacrimal gland cells, drug culture for 2 days, 0.1% DMSO; FIG. 3. How it is done: A comparative study of the action of increasing the expression level of lipophilin CL2 (L-CL2) gene by both nandrolone decanoate and methenolone acetate was conducted by allowing both drugs to act on lacrimal gland tissue cells. Furthermore, lipophilins are proteins that are synthesized in the lacrimal gland and are observed to be present in large amounts in the tears of humans and rabbits.
Each drug was dissolved in DMSO followed by diluting with DMEM/F-12 (D/F medium) to a final DMSO concentration of 0.1%. […]
Quantitative PCR was carried out by using primers designed by respectively joining to cDNA synthesized from the drug-treated lacrimal gland cells using the CellAmp Direct RNA Prep Kit and PrimeScript RT MasterMix (both manufactured by Takara Bio, Inc.), the QuantiFast SYBR Green PCR Kit (Qiagen Corp.), Rabbit L-CL2 gene (Accession No.: NM_001082095) and Rabbit GAPDH gene (Accession No.: NM_001082253). The expression level of L-CL2 gene of each of the drug-treated cells was corrected with expression of each GAPDH gene and expressed as the relative ratio to the expression level of cells treated with base (D/F medium containing 0.1% DMSO).

With `CCCCCCCCCC(=O)O[C@H]1CC[C@H]2[C@@H]3CCC4=CC(=O)CC[C@@H]4[C@H]3CC[C@]12C` [Nandrolone decanoate, 17β-decanoyloxy-19-nor-4-androsten-3-one], in the data set on TL in tears, the “Δ % TL (increase in percentage of TL in total tear protein)” value was found to be 4.30 ± 0.473%. For the same compound, the figures for the “concentration of nandrolone in the lacrimal gland over time” value in data set [1] (single 50 μL ointment 2% (w/v) nandrolone decanoate to right upper eyelid skin) and in data set [1] (single 50 μL ophthalmic solution 2% (w/v) nandrolone decanoate by instillation into right eye) were “somewhat lower than the concentration of methenolone in lacrimal gland tissue after administration of methenolone acetate to eyelid skin” and “much lower than in the case of administration to eyelid skin”, respectively. Further, the “expression of L-CL2 gene (corrected with GAPDH, relative ratio to base-treated cells)” value in data set [2] is “increases expression of L-CL2 gene in lacrimal gland cells”.
